# Assay results taken from patent publication EP0168658A1, “Pyrrolecarboxylic acid derivative having analgesic activity, preparation thereof and compositions therefrom” (POLI INDUSTRIA CHIMICA S.p.A., priority 1984, dated 1986).
# Where two headings read alike, the source gives them in different places.
# How the values were obtained:
# cyclooxygenase [1] = assay: Cyclooxygenase inhibitory activity; type: biochemical
# Acute toxicity per os = conditions: in vivo, po, mouse, at the 14th observation day
# Text: The acute toxicity per os is expressed as LD50 at the 14th observation day.
# mouse [2] = assay: Jumping by nalorphine (physical addiction); type: in vivo
# [3] = system: prostaglandine-synthetase; assay: Prostaglandine-synthetase inhibitory activity; type: biochemical
# Male albino mice = assay: Hot-plate test (plate at 55°C), analgesic activity by the oral route; type: in vivo, mouse; conditions: read-out: Hot place EX50
# Procedure: (§1) The analgesic activity of the compound of formula I by the oral route, has been determined in the mouse using the following tests: • - Phenylquinone test (Hendershot and Forsaith - J. Pharma- col. Exptl. Ther. 123, 237 (1959)); • - Hot-plate test. Male albino mice, treated with increasing doses of the compound under exam, are placed on a plate thermostatized at 55°C. An effective dose 50 (ED50) is defined as the dose inducing a 50% increase of the reaction time to the pain stimulus.
# mouse [4] = assay: Phenylquinone test, analgesic activity by the oral route; type: in vivo
# Procedure: as §1
# [5] = system: prostaglandine-synthetase; conditions: background statement on the known drug; cited from earlier work
# cyclooxygenase [6] = conditions: background statement on the known drug; cited from earlier work
structure (smiles),measurement,setting,value
"Cc1c(C(=O)O)c(C)n(C)c1C(=O)c1ccc(F)cc1 [Compound I, 5-(4-fluoro-benzoyl)-1,2,4-trimethyl-3-pyrrolcarboxylic acid]",cyclooxygenase inhibitory activity,cyclooxygenase [1],without cyclooxygenase and prostaglandine-synthetase inhibitory activity
same,LD50 at 336 h,Acute toxicity per os,> 1600 mg/kg
same,jumping by nalorphine,mouse [2],does not induce
same,prostaglandine-synthetase inhibitory activity,[3],without cyclooxygenase and prostaglandine-synthetase inhibitory activity
same,ED50,"Male albino mice; mouse, oral route, plate at 55°C, dose inducing a 50% increase of the reaction time to the pain stimulus",3.5 mg/kg
same,ED50,mouse [4],2.1 mg/kg
"Cc1cc(CC(=O)O)n(C)c1C(=O)c1ccc(Cl)cc1 [zomepirac, 5-(p-chlorobenzoyl)-l,4-dimethylpyrrole-2-acetic acid]",capacity of inhibiting prostaglandine-synthetase,[5],capacity of inhibiting the enzymes cyclooxygenase and prostaglandine-synthetase
same,capacity of inhibiting cyclooxygenase,cyclooxygenase [6],capacity of inhibiting the enzymes cyclooxygenase and prostaglandine-synthetase
"COc1ccc2c3c1O[C@H]1[C@@H](O)C=C[C@H]4[C@@H](C2)N(C)CC[C@@]341.Cl [Codeine HCl, codeine hydrochloride, reference compound]",ED50,"Male albino mice; Mus musculus, po",25 mg/kg
same,ED50,mouse [4],5.6 mg/kg
